According to US20090304692A1, “TRIAZINE COMPOUNDS AS PI3 KINASE AND MTOR INHIBITORS” (Wyeth, priority 2008, published 2009):
“And” between values parts separate entries of the source, which are not always exact repeats. Identical values can stand only once. Like-named read-outs stand apart in the source and are kept apart here. Blank lines part the entries; values can stand above or below the compound they belong to.

What was measured:
PI3K-α = PI3K-α (Homo sapiens, UniProt P42336); experiment: PI3K-alpha fluorescence polarization assay; settings: read-out: IC50 PI3Kα
PI3K-γ = PI3K-γ (Homo sapiens, UniProt P48736); experiment: PI3K-gamma fluorescence polarization assay
Human mTOR (FLAG-TOR) = Human mTOR (FLAG-TOR) (Homo sapiens, UniProt P42345); experiment: mTOR kinase assay (DELFIA format, purified enzyme); type: biochemical; settings: read-out: IC50 mTOR
Chain of Human mTOR (FLAG-TOR) (P42345 1360-2549 limits assumed): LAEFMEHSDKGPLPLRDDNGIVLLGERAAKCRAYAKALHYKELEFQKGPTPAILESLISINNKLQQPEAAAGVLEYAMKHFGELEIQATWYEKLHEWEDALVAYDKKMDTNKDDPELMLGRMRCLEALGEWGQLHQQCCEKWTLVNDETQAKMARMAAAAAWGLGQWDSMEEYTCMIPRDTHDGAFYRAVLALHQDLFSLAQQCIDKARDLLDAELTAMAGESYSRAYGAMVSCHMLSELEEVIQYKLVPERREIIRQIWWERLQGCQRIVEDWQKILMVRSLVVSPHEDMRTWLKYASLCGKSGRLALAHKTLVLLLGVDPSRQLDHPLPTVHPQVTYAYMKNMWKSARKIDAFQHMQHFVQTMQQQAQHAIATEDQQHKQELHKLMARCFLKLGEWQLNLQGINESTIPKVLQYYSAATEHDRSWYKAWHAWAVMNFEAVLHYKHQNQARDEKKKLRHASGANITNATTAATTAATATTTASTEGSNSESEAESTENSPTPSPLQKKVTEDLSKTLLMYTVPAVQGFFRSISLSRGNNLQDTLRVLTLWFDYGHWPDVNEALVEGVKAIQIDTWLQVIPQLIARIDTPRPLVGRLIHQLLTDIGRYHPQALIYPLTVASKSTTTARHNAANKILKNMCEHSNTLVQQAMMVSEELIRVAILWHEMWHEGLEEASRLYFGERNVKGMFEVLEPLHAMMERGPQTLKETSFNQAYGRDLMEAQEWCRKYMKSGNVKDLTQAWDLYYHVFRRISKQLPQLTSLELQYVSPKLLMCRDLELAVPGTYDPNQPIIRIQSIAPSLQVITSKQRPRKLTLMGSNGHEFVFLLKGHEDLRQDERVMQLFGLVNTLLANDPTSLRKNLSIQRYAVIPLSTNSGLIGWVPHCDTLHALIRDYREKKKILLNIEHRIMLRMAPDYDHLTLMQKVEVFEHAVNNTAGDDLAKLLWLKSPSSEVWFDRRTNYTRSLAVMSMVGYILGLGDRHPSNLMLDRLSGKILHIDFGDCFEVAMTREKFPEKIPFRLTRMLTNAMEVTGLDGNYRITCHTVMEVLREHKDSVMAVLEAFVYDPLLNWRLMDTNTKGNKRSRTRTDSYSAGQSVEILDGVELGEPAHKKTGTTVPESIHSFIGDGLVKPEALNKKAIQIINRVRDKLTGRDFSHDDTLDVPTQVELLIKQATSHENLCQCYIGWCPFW

Chain of PI3K-γ (P48736 whole entry, species assumed): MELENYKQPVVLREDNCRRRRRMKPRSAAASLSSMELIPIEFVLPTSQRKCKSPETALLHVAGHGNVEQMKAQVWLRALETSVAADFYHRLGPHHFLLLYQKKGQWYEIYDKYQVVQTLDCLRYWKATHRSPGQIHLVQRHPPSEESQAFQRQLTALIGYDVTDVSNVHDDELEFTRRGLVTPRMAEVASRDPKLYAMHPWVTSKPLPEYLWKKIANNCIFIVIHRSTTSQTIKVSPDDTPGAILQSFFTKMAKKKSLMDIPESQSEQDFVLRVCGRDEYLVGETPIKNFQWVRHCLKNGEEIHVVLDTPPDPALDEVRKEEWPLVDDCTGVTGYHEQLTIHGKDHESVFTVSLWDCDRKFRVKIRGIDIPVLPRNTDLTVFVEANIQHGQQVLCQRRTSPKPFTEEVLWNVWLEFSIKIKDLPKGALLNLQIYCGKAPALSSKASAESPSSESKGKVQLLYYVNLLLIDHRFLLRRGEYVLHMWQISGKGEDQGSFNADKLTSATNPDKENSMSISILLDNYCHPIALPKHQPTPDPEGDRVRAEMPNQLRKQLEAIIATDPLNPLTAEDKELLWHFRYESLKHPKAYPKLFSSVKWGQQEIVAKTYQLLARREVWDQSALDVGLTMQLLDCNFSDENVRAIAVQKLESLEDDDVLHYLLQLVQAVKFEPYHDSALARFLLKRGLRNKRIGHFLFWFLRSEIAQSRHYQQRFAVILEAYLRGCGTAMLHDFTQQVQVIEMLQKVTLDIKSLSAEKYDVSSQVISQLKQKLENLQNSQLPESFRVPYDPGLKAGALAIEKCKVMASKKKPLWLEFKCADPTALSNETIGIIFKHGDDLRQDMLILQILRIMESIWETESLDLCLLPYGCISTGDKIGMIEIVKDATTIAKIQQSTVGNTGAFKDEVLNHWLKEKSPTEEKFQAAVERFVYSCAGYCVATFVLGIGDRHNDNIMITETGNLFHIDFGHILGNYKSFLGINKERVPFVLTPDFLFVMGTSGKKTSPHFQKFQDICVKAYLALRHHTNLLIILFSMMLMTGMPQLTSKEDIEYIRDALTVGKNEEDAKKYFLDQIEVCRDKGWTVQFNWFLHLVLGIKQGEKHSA
Chain of PI3K-α (P42336 whole entry, species assumed): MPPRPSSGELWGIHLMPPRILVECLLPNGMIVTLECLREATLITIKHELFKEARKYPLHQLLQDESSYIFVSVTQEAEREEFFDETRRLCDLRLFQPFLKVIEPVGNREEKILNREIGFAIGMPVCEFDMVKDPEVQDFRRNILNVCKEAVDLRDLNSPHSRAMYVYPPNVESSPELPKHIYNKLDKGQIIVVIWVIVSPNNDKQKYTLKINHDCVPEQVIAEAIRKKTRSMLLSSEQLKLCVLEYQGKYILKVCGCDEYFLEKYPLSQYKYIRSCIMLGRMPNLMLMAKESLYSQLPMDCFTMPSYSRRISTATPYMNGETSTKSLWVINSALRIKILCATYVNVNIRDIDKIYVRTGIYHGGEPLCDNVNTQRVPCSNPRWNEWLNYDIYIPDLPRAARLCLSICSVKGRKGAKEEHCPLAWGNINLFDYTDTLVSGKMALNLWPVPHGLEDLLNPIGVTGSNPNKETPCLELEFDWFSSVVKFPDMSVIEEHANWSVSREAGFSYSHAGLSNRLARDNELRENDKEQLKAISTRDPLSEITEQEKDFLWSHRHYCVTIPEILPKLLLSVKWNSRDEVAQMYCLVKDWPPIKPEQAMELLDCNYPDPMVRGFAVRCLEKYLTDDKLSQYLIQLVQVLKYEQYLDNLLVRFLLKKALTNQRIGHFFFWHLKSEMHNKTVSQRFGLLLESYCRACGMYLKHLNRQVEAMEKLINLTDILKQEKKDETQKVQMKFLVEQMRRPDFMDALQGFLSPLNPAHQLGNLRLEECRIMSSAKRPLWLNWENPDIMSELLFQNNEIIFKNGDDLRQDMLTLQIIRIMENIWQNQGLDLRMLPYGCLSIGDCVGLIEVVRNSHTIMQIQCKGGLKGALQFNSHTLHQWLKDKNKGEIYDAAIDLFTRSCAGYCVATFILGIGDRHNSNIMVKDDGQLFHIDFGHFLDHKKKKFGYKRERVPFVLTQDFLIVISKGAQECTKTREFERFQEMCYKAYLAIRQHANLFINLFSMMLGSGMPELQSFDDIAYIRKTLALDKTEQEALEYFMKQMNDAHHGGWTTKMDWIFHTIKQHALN
Chain of PI3K-α (P27986 whole entry partner, species assumed): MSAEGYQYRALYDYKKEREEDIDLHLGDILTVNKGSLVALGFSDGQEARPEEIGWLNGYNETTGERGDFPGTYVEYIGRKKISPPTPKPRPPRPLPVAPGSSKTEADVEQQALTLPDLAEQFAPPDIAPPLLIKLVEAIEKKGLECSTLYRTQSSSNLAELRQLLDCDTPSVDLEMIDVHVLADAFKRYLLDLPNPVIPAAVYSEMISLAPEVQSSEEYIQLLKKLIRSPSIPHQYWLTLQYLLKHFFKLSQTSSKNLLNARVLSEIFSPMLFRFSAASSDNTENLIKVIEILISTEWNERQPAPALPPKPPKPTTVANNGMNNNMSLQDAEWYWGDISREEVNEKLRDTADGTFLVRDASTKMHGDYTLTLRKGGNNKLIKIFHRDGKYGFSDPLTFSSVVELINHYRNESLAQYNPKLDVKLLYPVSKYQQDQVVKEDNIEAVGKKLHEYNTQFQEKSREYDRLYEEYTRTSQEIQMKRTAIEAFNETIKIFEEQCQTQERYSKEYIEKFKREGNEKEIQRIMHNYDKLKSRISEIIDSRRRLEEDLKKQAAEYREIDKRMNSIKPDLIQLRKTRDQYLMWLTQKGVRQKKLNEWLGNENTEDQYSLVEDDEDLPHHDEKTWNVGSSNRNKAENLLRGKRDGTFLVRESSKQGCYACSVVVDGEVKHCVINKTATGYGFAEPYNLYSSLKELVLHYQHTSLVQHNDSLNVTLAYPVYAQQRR

Compound: Nc1ccc(-c2nc(N3CCOCC3)nc(N3CCC4(CC3)OCCO4)n2)cc1 [Example 129, 4-[4-(1,4-dioxa-8-azaspiro[4.5]dec-8-yl)-6-morpholin-4-yl-1,3,5-triazin-2-yl]aniline]
IC50 (PI3K-α): 7220 nM | IC50 (PI3K-γ): > 10000 nM | IC50 (Human mTOR (FLAG-TOR)): 2350 nM

Compound: Cc1ccc(-c2nc(-c3ccc(NC(=O)Nc4ccc(N5CCN(C)CC5)cc4)cc3)nc(N3CCOCC3)n2)cc1 [Example 343, 1-{4-[4-(4-methylphenyl)-6-morpholin-4-yl-1,3,5-triazin-2-yl]phenyl}-3-[4-(4-methylpiperazin-1-yl)phenyl]urea]
IC50 (PI3K-α): 97 nM | IC50 (PI3K-α; listed as 526): 96.5 nM | IC50 (PI3K-γ; read-out: IC50 PI3Kγ): 6700 nM | IC50 (PI3K-γ; read-out: IC50 PI3Kγ, listed as 526): 6700 nM | IC50 (Human mTOR (FLAG-TOR)): 40 nM and 47.5 nM

Compound: CC(C)c1nc(-c2ccc(NC(=O)Nc3ccc(I)cc3)cc2)nc(N2CCOCC2)n1 [Example 490, 1-(4-iodophenyl)-3-{4-[4-(1-methylethyl)-6-morpholin-4-yl-1,3,5-triazin-2-yl]phenyl}urea]
IC50 (PI3K-α): 586 nM | IC50 (PI3K-γ; read-out: IC50 PI3Kγ): 1080 nM | IC50 (Human mTOR (FLAG-TOR)): 11.6 nM

Compound: CN(C)[C@@H]1CCN(C(=O)c2ccc(NC(=O)Nc3ccc(-c4nc(N5CCOCC5)nc(N5C6CCC5COC6)n4)cc3)cc2)C1 [Example 825, 1-(4-{[(3R)-3-(dimethylamino)pyrrolidin-1-yl]carbonyl}phenyl)-3-{4-[4-morpholin-4-yl-6-(3-oxa-8-azabicyclo[3.2.1]oct-8-yl)-1,3,5-triazin-2-yl]phenyl}urea]
IC50 (PI3K-α): 2 nM | IC50 (PI3K-α; listed as 828): 2.05 nM | IC50 (PI3K-γ; read-out: IC50 PI3Kγ): 13 nM | IC50 (Human mTOR (FLAG-TOR)): 185 nM

Compound: COC(=O)c1cccc(NC(=O)Nc2ccc(-c3nc(-c4ccccc4)nc(N4CCOCC4)n3)cc2)c1 [Example 586, methyl 3-({[4-(4-morpholin-4-yl-6-phenyl-1,3,5-triazin-2-yl)phenyl]carbamoyl}amino)benzoate]
IC50 (PI3K-α): 947 nM | IC50 (PI3K-γ; read-out: IC50 PI3Kγ): 1250 nM | IC50 (Human mTOR (FLAG-TOR)): 365 nM

Compound: COC(=O)c1cccc(NC(=O)Nc2ccc(-c3nc(-c4cccs4)nc(N4CCOCC4)n3)cc2)c1 [Example 582, methyl 3-({[4-(4-morpholin-4-yl-6-thiophen-2-yl-1,3,5-triazin-2-yl)phenyl]carbamoyl}amino)benzoate]
IC50 (PI3K-α): 513 nM | IC50 (PI3K-γ; read-out: IC50 PI3Kγ): 1090 nM | IC50 (Human mTOR (FLAG-TOR)): 230 nM

Compound: O=C(Nc1ccncc1)Nc1ccc(-c2nc(N3CCOCC3)nc(N3C4COCC3[C@H](O)C4)n2)cc1 (stereo partly drawn) [Example 820, 1-(4-{4-[(6R)-6-hydroxy-3-oxa-8-azabicyclo[3.2.1]oct-8-yl]-6-morpholin-4-yl-1,3,5-triazin-2-yl}phenyl)-3-pyridin-4-ylurea]
IC50 (PI3K-α): 6.1 nM | IC50 (PI3K-γ; read-out: IC50 PI3Kγ): 67 nM | IC50 (Human mTOR (FLAG-TOR)): 0.515 nM

Compound: C[C@H]1COCCN1c1nc(-c2ccc(NC(=O)Nc3ccc(C(=O)O)cc3)cc2)nc(N2CCOC[C@@H]2C)n1 [Example 549, 4-{[(4-{4,6-bis[(3S)-3-methylmorpholin-4-yl]-1,3,5-triazin-2-yl}phenyl)carbamoyl]amino}benzoic acid]
IC50 (PI3K-α): 724 nM | IC50 (PI3K-γ; read-out: IC50 PI3Kγ): 4540 nM | IC50 (Human mTOR (FLAG-TOR)): 26.5 nM

Compound: C[C@H]1COCCN1c1nc(-c2ccc(NC(=O)Nc3ccc(C(=O)O)cc3)cc2)nc(N2C3CCC2COC3)n1 [Example 832, 4-{[(4-{4-[(3S)-3-methylmorpholin-4-yl]-6-(3-oxa-8-azabicyclo[3.2.1]oct-8-yl)-1,3,5-triazin-2-yl}phenyl)carbamoyl]amino}benzoic acid]
IC50 (PI3K-α): 61.5 nM | IC50 (PI3K-γ; read-out: IC50 PI3Kγ): 342 nM | IC50 (Human mTOR (FLAG-TOR)): 165 nM

Compound: CC(C)NC(=O)Nc1ccc(-c2nc(N3CCOCC3)nc(N3C4CCC3COC4)n2)cc1 [Example 44, 1-isopropyl-3-{4-[4-morpholin-4-yl-6-(3-oxa-8-azabicyclo[3.2.1]oct-8-yl)-1,3,5-triazin-2-yl]phenyl}urea]
IC50 (PI3K-α): 1580 nM | IC50 (PI3K-γ; read-out: IC50 PI3Kγ): 9500 nM | IC50 (Human mTOR (FLAG-TOR)): 13.5 nM

Compound: O=C(Nc1ccc(C(=O)N2CCS(=O)(=O)CC2)cc1)Nc1ccc(-c2nc(N3CCOCC3)nc(N3C4CCC3COC4)n2)cc1 [Example 822, 1-{4-[(1,1-dioxidothiomorpholin-4-yl)carbonyl]phenyl}-3-{4-[4-morpholin-4-yl-6-(3-oxa-8-azabicyclo[3.2.1]oct-8-yl)-1,3,5-triazin-2-yl]phenyl}urea]
IC50 (PI3K-α): 3 nM | IC50 (PI3K-γ; read-out: IC50 PI3Kγ): 31.5 nM | IC50 (Human mTOR (FLAG-TOR)): 0.335 nM

Compound: O=C(Nc1ccc(C(=O)O)cc1)Nc1ccc(-c2nc(N3CCCOCC3)nc(N3CCOCC3)n2)cc1 [Example 569, 4-[({4-[4-morpholin-4-yl-6-(1,4-oxazepan-4-yl)-1,3,5-triazin-2-yl]phenyl}carbamoyl)amino]benzoic acid]
IC50 (PI3K-α): 74.5 nM | IC50 (PI3K-γ; read-out: IC50 PI3Kγ): 375 nM | IC50 (Human mTOR (FLAG-TOR)): 8 nM

Compound: O=C(Nc1ccncc1)Nc1ccc(-c2nc(N3CCOCC3)nc(N3CC4CNCC(C3)O4)n2)cc1 [Example 290, 1-{4-[4-morpholin-4-yl-6-(9-oxa-3,7-diazabicyclo[3.3.1]non-3-yl)-1,3,5-triazin-2-yl]phenyl}-3-pyridin-4-ylurea]
IC50 (PI3K-α): 97 nM | IC50 (PI3K-γ; read-out: IC50 PI3Kγ): 166 nM | IC50 (Human mTOR (FLAG-TOR)): 150 nM and 145 nM

Compound: CCc1nc(-c2ccc(NC(=O)Nc3cccc(C(=O)OC)c3)cc2)nc(N2CCOCC2)n1 [Example 581, methyl 3-({[4-(4-ethyl-6-morpholin-4-yl-1,3,5-triazin-2-yl)phenyl]carbamoyl}amino)benzoate]
IC50 (PI3K-α): 114 nM | IC50 (PI3K-γ; read-out: IC50 PI3Kγ): 461 nM | IC50 (Human mTOR (FLAG-TOR)): 37 nM

Other lines, results leading:

IC50 (PI3K-α): 6 nM | IC50 (PI3K-γ; read-out: IC50 PI3Kγ): 70 nM | IC50 (Human mTOR (FLAG-TOR)): 8 nM
Compound: CCS(=O)(=O)N1CCN(c2nc(-c3ccc(NC(=O)Nc4ccc(C(=O)NCCN(C)C)cc4)cc3)nc(N3CCOCC3)n2)CC1 [Example 654, N-[2-(dimethylamino)ethyl]-4-{[(4-{4-[4-(ethylsulfonyl)piperazin-1-yl]-6-morpholin-4-yl-1,3,5-triazin-2-yl}phenyl)carbamoyl]amino}benzamide]

IC50 (PI3K-α): 244 nM | IC50 (PI3K-γ; read-out: IC50 PI3Kγ): 593 nM | IC50 (Human mTOR (FLAG-TOR)): 65 nM
Compound: O=C(Nc1ccc(C(=O)O)cc1)Nc1ccc(-c2nc(NS(=O)(=O)c3ccccc3)nc(N3CCOCC3)n2)cc1 [Example 790, 4-{[(4-{4-morpholin-4-yl-6-[(phenylsulfonyl)amino]-1,3,5-triazin-2-yl}phenyl)carbamoyl]amino}benzoic acid]

IC50 (PI3K-α): 41.5 nM | IC50 (PI3K-γ; read-out: IC50 PI3Kγ): 265 nM | IC50 (Human mTOR (FLAG-TOR)): 20 nM
Compound: CC(=O)NC1CCN(c2nc(-c3ccc(NC(=O)Nc4ccncc4)cc3)nc(N3CCOCC3)n2)CC1 [Example 658, N-[1-(4-morpholin-4-yl-6-{4-[(pyridin-4-ylcarbamoyl)amino]phenyl}-1,3,5-triazin-2-yl)piperidin-4-yl]acetamide]

IC50 (PI3K-α): 11.5 nM | IC50 (PI3K-γ; read-out: IC50 PI3Kγ): 128 nM | IC50 (Human mTOR (FLAG-TOR)): 385 nM
Compound: CC(C)N1CCCN(c2nc(-c3ccc(NC(=O)Nc4ccc(C(=O)N5CCN(C)CC5)cc4)cc3)nc(N3CCOCC3)n2)CC1 [Example 657, 1-(4-{4-[4-(1-methylethyl)-1,4-diazepan-1-yl]-6-morpholin-4-yl-1,3,5-triazin-2-yl}phenyl)-3-{4-[(4-methylpiperazin-1-yl)carbonyl]phenyl}urea]

IC50 (PI3K-α): 23.5 nM | IC50 (PI3K-γ; read-out: IC50 PI3Kγ): 104 nM | IC50 (Human mTOR (FLAG-TOR)): 22 nM
Compound: CCS(=O)(=O)N1CCN(c2nc(-c3ccc(NC(=O)Nc4ccncc4)cc3)nc(N3CCOCC3)n2)CC1 [Example 650, 1-(4-{4-[4-(ethylsulfonyl)piperazin-1-yl]-6-morpholin-4-yl-1,3,5-triazin-2-yl}phenyl)-3-pyridin-4-ylurea]

IC50 (PI3K-α): 870 nM | IC50 (PI3K-γ; read-out: IC50 PI3Kγ): 1160 nM | IC50 (Human mTOR (FLAG-TOR)): 59 nM
Compound: COC(=O)c1ccc(NC(=O)Nc2ccc(-c3nc(NS(=O)(=O)c4ccccc4)nc(N4CCOCC4)n3)cc2)cc1 [Example 789, methyl 4-{[(4-{4-morpholin-4-yl-6-[(phenylsulfonyl)amino]-1,3,5-triazin-2-yl}phenyl)carbamoyl]amino}benzoate]

IC50 (PI3K-α): 36 nM | IC50 (PI3K-γ; read-out: IC50 PI3Kγ): 84.5 nM | IC50 (Human mTOR (FLAG-TOR)): 4 nM
Compound: CCS(=O)(=O)N1CCN(c2nc(-c3ccc(NC(=O)Nc4ccc(C(=O)O)cc4)cc3)nc(N3CCOCC3)n2)CC1 [Example 652, 4-{[(4-{4-[4-(ethylsulfonyl)piperazin-1-yl]-6-morpholin-4-yl-1,3,5-triazin-2-yl}phenyl)carbamoyl]amino}benzoic acid]

IC50 (PI3K-α): 524 nM | IC50 (PI3K-γ; read-out: IC50 PI3Kγ): 2250 nM | IC50 (Human mTOR (FLAG-TOR)): 54 nM
Compound: CCc1nc(-c2ccc(NC(=O)Nc3cccc(C(=O)N(C)CCN(C)C)c3)cc2)nc(N2CCOCC2)n1 [Example 588, N-[2-(dimethylamino)ethyl]-3-({[4-(4-ethyl-6-morpholin-4-yl-1,3,5-triazin-2-yl)phenyl]carbamoyl}amino)-N-methylbenzamide]

IC50 (PI3K-α): 395 nM | IC50 (PI3K-γ; read-out: IC50 PI3Kγ): 2190 nM | IC50 (Human mTOR (FLAG-TOR)): 67 nM
Compound: O=C(Nc1ccc(-c2nc(N3CCOCC3)nc(N3CC4CCC3CO4)n2)cc1)Nc1cc[nH]n1 (stereo not drawn) [Example 809, 1-{4-[4-morpholin-4-yl-6-(2-oxa-5-azabicyclo[2.2.2]oct-5-yl)-1,3,5-triazin-2-yl]phenyl}-3-(1H-pyrazol-3-yl)urea]

IC50 (PI3K-α): 33 nM | IC50 (PI3K-γ; read-out: IC50 PI3Kγ): 137 nM | IC50 (Human mTOR (FLAG-TOR)): 1 nM
Compound: C[C@H]1COCCN1c1nc(-c2ccc(NC(=O)Nc3ccc(C(=O)O)cc3)cc2)nc(N2CCOCC2)n1 [Example 619, 4-{[(4-{4-[(3S)-3-methylmorpholin-4-yl]-6-morpholin-4-yl-1,3,5-triazin-2-yl}phenyl)carbamoyl]amino}benzoic acid]

IC50 (PI3K-α): 71 nM | IC50 (PI3K-γ; read-out: IC50 PI3Kγ): 248 nM | IC50 (Human mTOR (FLAG-TOR)): 14 nM
Compound: CCS(=O)(=O)N1CCN(c2nc(-c3ccc(NC(=O)Nc4ccc(C(=O)OC)cc4)cc3)nc(N3CCOCC3)n2)CC1 [Example 651, methyl 4-{[(4-{4-[4-(ethylsulfonyl)piperazin-1-yl]-6-morpholin-4-yl-1,3,5-triazin-2-yl}phenyl)carbamoyl]amino}benzoate]

IC50 (PI3K-α): 350 nM | IC50 (PI3K-γ; read-out: IC50 PI3Kγ): 744 nM | IC50 (Human mTOR (FLAG-TOR)): 22 nM
Compound: COC(=O)c1ccc(NC(=O)Nc2ccc(-c3nc(N4CCCC4)nc(N4CCOCC4)n3)cc2)cc1 [Example 594, methyl 4-({[4-(4-morpholin-4-yl-6-pyrrolidin-1-yl-1,3,5-triazin-2-yl)phenyl]carbamoyl}amino)benzoate]
